Measurements from the supplement of paper PMC10331698.
± gives the standard deviation of the averaged measurements.

Columns and labels:
Assay in all cases: level (log10 ratio to DMSO vehicle control); higher = higher biomarker level / cell amount than vehicle control
Details in all cases: in DMSO
[1] = compound: FC(F)(F)C(F)(F)C(F)(F)C(F)(F)C(F)(F)C(F)(F)C(F)(F)CCI [1-Iodo-1H,1H,2H,2H-perfluorononane]
Procedure: (§1)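 BioMAP Diversity Plus panel of 12 human primary cell co-culture systems (3C, 4H, LPS, SAg, BT, BF4T, BE3C, CASM3C, HDF3CGF, KF3CT, MyoF, Mphg). Compounds were added 1 h before stimulation and left for 24 h (MyoF 48 h; BT 72 h for soluble read-outs or 6 d for IgG). Biomarkers were read by ELISA, cytotoxicity by SRB, PBMC viability and proliferation by Alamar Blue. Each well value was divided by the mean of 8 DMSO control wells on the same plate and log10 transformed; duplicate blinded samples were tested at 4 concentrations.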

1H,1H-Heptafluorobutanol = compound: OCC(F)(F)C(F)(F)C(F)(F)F [1H,1H-Heptafluorobutanol]
Procedure: as §1

[2] = compound: O=S(=O)(O)C(F)(F)C(F)(F)C(F)(F)C(F)(F)F [Perfluorobutanesulfonic acid]
Procedure: as §1

Hexafluoroglutaric acid = compound: O=C(O)C(F)(F)C(F)(F)C(F)(F)C(=O)O [Hexafluoroglutaric acid]
Procedure: as §1

[3] = compound: C=CC(=O)OCCC(F)(F)C(F)(F)C(F)(F)C(F)(F)F [2-(Perfluorobutyl)ethyl acrylate]
Procedure: as §1

[4] = compound: C=C(C)C(=O)OCC(F)(F)C(F)(F)C(F)(F)C(F)(F)C(F)(F)C(F)(F)C(F)(F)F
Procedure: as §1

Perfluorooctanamide = compound: NC(=O)C(F)(F)C(F)(F)C(F)(F)C(F)(F)C(F)(F)C(F)(F)C(F)(F)F [Perfluorooctanamide]
Procedure: as §1

Test System: BF4T:MMP-3
- level (log10) ([1]; 6700 nM): 0.0185 ± 0.013
- level (log10) ([1]; 20000 nM): 0.011 ± 0.0014
- level (log10) (1H,1H-Heptafluorobutanol; 6700 nM): 0.004 ± 0.016
- level (log10) (1H,1H-Heptafluorobutanol; 20000 nM): -0.0135 ± 0.012
- level (log10) (1H,1H-Heptafluorobutanol; 60000 nM): 0.0055 ± 0.04
- level (log10) ([2]; 6700 nM): 0.014 ± 0.0014
- level (log10) ([2]; 20000 nM): 0.001
- level (log10) ([2]; 60000 nM): 0.042 ± 0.033
- level (log10) (Hexafluoroglutaric acid; 6700 nM): -0.0045 ± 0.0092
- level (log10) (Hexafluoroglutaric acid; 20000 nM): -0.0125 ± 0.035
- level (log10) (Hexafluoroglutaric acid; 60000 nM): 0.0175 ± 0.0021
- level (log10) ([3]; 6700 nM): -0.008 ± 0.021
- level (log10) ([3]; 20000 nM): 0.0315 ± 0.052
- level (log10) ([3]; 60000 nM): 0.0525 ± 0.00071
- level (log10) ([4]; 6700 nM): 0.002 ± 0.023
- level (log10) ([4]; 20000 nM): -0.007 ± 0.018
- level (log10) (Perfluorooctanamide; 6700 nM): -0.007 ± 0.051
- level (log10) (Perfluorooctanamide; 20000 nM): 0.0125 ± 0.012
- level (log10) (Perfluorooctanamide; 60000 nM): 0.019 ± 0.017

Test System: BF4T:MMP-9
- level (log10) ([1]; 6700 nM): 0.007 ± 0.044
- level (log10) ([1]; 20000 nM): -0.0065 ± 0.028
- level (log10) (1H,1H-Heptafluorobutanol; 6700 nM): -0.03 ± 0.038
- level (log10) (1H,1H-Heptafluorobutanol; 20000 nM): -0.001 ± 0.011
- level (log10) (1H,1H-Heptafluorobutanol; 60000 nM): -0.0145 ± 0.0021
- level (log10) ([2]; 6700 nM): -0.004 ± 0.0014
- level (log10) ([2]; 20000 nM): -0.0065 ± 0.028
- level (log10) ([2]; 60000 nM): -0.013 ± 0.02
- level (log10) (Hexafluoroglutaric acid; 6700 nM): -0.003 ± 0.0014
- level (log10) (Hexafluoroglutaric acid; 20000 nM): -0.0135 ± 0.012
- level (log10) (Hexafluoroglutaric acid; 60000 nM): 0.007 ± 0.0028
- level (log10) ([3]; 6700 nM): -0.0015 ± 0.035
- level (log10) ([3]; 20000 nM): -0.006 ± 0.057
- level (log10) ([3]; 60000 nM): -0.013 ± 0.058
- level (log10) ([4]; 6700 nM): 0.015 ± 0.0071
- level (log10) ([4]; 20000 nM): 0.0165 ± 0.005
- level (log10) (Perfluorooctanamide; 6700 nM): -0.0065 ± 0.011
- level (log10) (Perfluorooctanamide; 20000 nM): 0.0015 ± 0.039
- level (log10) (Perfluorooctanamide; 60000 nM): -0.031 ± 0.048

Test System: BF4T:PAI-I
- level (log10) ([1]; 6700 nM): -0.0005 ± 0.013
- level (log10) ([1]; 20000 nM): -0.013 ± 0.011
- level (log10) (1H,1H-Heptafluorobutanol; 6700 nM): -0.015 ± 0.0042
- level (log10) (1H,1H-Heptafluorobutanol; 20000 nM): -0.009
- level (log10) (1H,1H-Heptafluorobutanol; 60000 nM): 0.0025 ± 0.028
- level (log10) ([2]; 6700 nM): -0.0075 ± 0.0092
- level (log10) ([2]; 20000 nM): -0.005 ± 0.0042
- level (log10) ([2]; 60000 nM): 0.0015 ± 0.005
- level (log10) (Hexafluoroglutaric acid; 6700 nM): -0.0085 ± 0.022
- level (log10) (Hexafluoroglutaric acid; 20000 nM): -0.002 ± 0.021
- level (log10) (Hexafluoroglutaric acid; 60000 nM): 0.0165 ± 0.011
- level (log10) ([3]; 6700 nM): -0.006 ± 0.025
- level (log10) ([3]; 20000 nM): 0.007 ± 0.03
- level (log10) ([3]; 60000 nM): -0.0255 ± 0.025
- level (log10) ([4]; 6700 nM): 0.0195 ± 0.022
- level (log10) ([4]; 20000 nM): 0.0135 ± 0.019
- level (log10) (Perfluorooctanamide; 6700 nM): -0.009 ± 0.023
- level (log10) (Perfluorooctanamide; 20000 nM): -0.004 ± 0.017
- level (log10) (Perfluorooctanamide; 60000 nM): 0.0065 ± 0.005

Test System: BF4T:SRB
- level (log10) ([1]; 6700 nM): -0.001 ± 0.0042
- level (log10) ([1]; 20000 nM): 0.001 ± 0.0042
- level (log10) (1H,1H-Heptafluorobutanol; 6700 nM): 0.004 ± 0.017
- level (log10) (1H,1H-Heptafluorobutanol; 20000 nM): -0.0075 ± 0.0078
- level (log10) (1H,1H-Heptafluorobutanol; 60000 nM): 0.009 ± 0.017
- level (log10) ([2]; 6700 nM): -0.006 ± 0.0099
- level (log10) ([2]; 20000 nM): -0.0085 ± 0.005
- level (log10) ([2]; 60000 nM): -0.009 ± 0.0028
- level (log10) (Hexafluoroglutaric acid; 6700 nM): -0.005 ± 0.0028
- level (log10) (Hexafluoroglutaric acid; 20000 nM): -0.0065 ± 0.0021
- level (log10) (Hexafluoroglutaric acid; 60000 nM): -0.0015 ± 0.0078
- level (log10) ([3]; 6700 nM): -0.003 ± 0.0014
- level (log10) ([3]; 20000 nM): -0.005
- level (log10) ([3]; 60000 nM): -0.0085 ± 0.0021
- level (log10) ([4]; 6700 nM): 0.0005 ± 0.0078
- level (log10) ([4]; 20000 nM): -0.005 ± 0.011
- level (log10) (Perfluorooctanamide; 6700 nM): -0.005 ± 0.0042
- level (log10) (Perfluorooctanamide; 20000 nM): 0.008 ± 0.011
- level (log10) (Perfluorooctanamide; 60000 nM): -0.006 ± 0.0042

Test System: BF4T:tPA
- level (log10) ([1]; 6700 nM): 0.0185 ± 0.0064
- level (log10) ([1]; 20000 nM): -0.0135 ± 0.0064
- level (log10) (1H,1H-Heptafluorobutanol; 6700 nM): -0.0205 ± 0.00071
- level (log10) (1H,1H-Heptafluorobutanol; 20000 nM): -0.009 ± 0.013
- level (log10) (1H,1H-Heptafluorobutanol; 60000 nM): 0.0155 ± 0.037
- level (log10) ([2]; 6700 nM): -0.0115 ± 0.021
- level (log10) ([2]; 20000 nM): 0.0025 ± 0.0092
- level (log10) ([2]; 60000 nM): 0.0115 ± 0.018
- level (log10) (Hexafluoroglutaric acid; 6700 nM): -0.0195 ± 0.018
- level (log10) (Hexafluoroglutaric acid; 20000 nM): -0.0205 ± 0.028
- level (log10) (Hexafluoroglutaric acid; 60000 nM): -0.0045 ± 0.011
- level (log10) ([3]; 6700 nM): 0.0005 ± 0.023
- level (log10) ([3]; 20000 nM): -0.035 ± 0.023
- level (log10) ([3]; 60000 nM): -0.0325 ± 0.00071
- level (log10) ([4]; 6700 nM): 0.0085 ± 0.0035
- level (log10) ([4]; 20000 nM): -0.0115 ± 0.021
- level (log10) (Perfluorooctanamide; 6700 nM): -0.015 ± 0.034
- level (log10) (Perfluorooctanamide; 20000 nM): -0.006 ± 0.017
- level (log10) (Perfluorooctanamide; 60000 nM): -0.004 ± 0.0042

Test System: BF4T:uPA
- level (log10) ([1]; 6700 nM): -0.011 ± 0.035
- level (log10) ([1]; 20000 nM): -0.012 ± 0.033
- level (log10) (1H,1H-Heptafluorobutanol; 6700 nM): -0.002 ± 0.0071
- level (log10) (1H,1H-Heptafluorobutanol; 20000 nM): -0.019 ± 0.011
- level (log10) (1H,1H-Heptafluorobutanol; 60000 nM): -0.009 ± 0.011
- level (log10) ([2]; 6700 nM): -0.026 ± 0.02
- level (log10) ([2]; 20000 nM): 0.006 ± 0.0014
- level (log10) ([2]; 60000 nM): -0.014 ± 0.027
- level (log10) (Hexafluoroglutaric acid; 6700 nM): -0.009 ± 0.016
- level (log10) (Hexafluoroglutaric acid; 20000 nM): -0.0015 ± 0.015
- level (log10) (Hexafluoroglutaric acid; 60000 nM): -0.003 ± 0.0028
- level (log10) ([3]; 6700 nM): -0.008 ± 0.028
- level (log10) ([3]; 20000 nM): -0.009 ± 0.02
- level (log10) ([3]; 60000 nM): -0.022 ± 0.03
- level (log10) ([4]; 6700 nM): 0.0015 ± 0.032
- level (log10) ([4]; 20000 nM): -0.0055 ± 0.005
- level (log10) (Perfluorooctanamide; 6700 nM): -0.0175 ± 0.015
- level (log10) (Perfluorooctanamide; 20000 nM): -0.004 ± 0.038
- level (log10) (Perfluorooctanamide; 60000 nM): 0.016 ± 0.027

Test System: BT:B cell Proliferation
- level (log10) ([1]; 6700 nM): 0.0135 ± 0.029
- level (log10) ([1]; 20000 nM): 0.0045 ± 0.015
- level (log10) (1H,1H-Heptafluorobutanol; 6700 nM): 0.0265 ± 0.0078
- level (log10) (1H,1H-Heptafluorobutanol; 20000 nM): -0.0155 ± 0.026
- level (log10) (1H,1H-Heptafluorobutanol; 60000 nM): -0.016 ± 0.075
- level (log10) ([2]; 6700 nM): -0.0025 ± 0.016
- level (log10) ([2]; 20000 nM): 0.0085 ± 0.016
- level (log10) ([2]; 60000 nM): 0.038 ± 0.0014
- level (log10) (Hexafluoroglutaric acid; 6700 nM): -0.005 ± 0.0042
- level (log10) (Hexafluoroglutaric acid; 20000 nM): -0.0035 ± 0.0078
- level (log10) (Hexafluoroglutaric acid; 60000 nM): 0.011 ± 0.017
- level (log10) ([3]; 6700 nM): -0.018 ± 0.0014
- level (log10) ([3]; 20000 nM): -0.0275 ± 0.011
- level (log10) ([3]; 60000 nM): -0.264 ± 0.063
- level (log10) ([4]; 6700 nM): -0.005 ± 0.021
- level (log10) ([4]; 20000 nM): 0.0115 ± 0.0078
- level (log10) (Perfluorooctanamide; 6700 nM): 0.013 ± 0.024
- level (log10) (Perfluorooctanamide; 20000 nM): 0.0055 ± 0.00071
- level (log10) (Perfluorooctanamide; 60000 nM): -0.028 ± 0.054
